The results in this text go back to publication PMC7607426, “Vicinal difluorination as a C=C surrogate: an analog of piperine with enhanced solubility, photostability, and acetylcholinesterase inhibitory activity” (Beilstein Journal of Organic Chemistry, 2020).

The term pIC50 denotes the IC50 on a negative log10 scale, so that one unit is a factor of ten. A higher pIC50 goes with a low IC50.

The structures appear in SMILES notation. pIC50: −log10 of the molar value.

The target of this experiment is acetylcholinesterase (AChE) (Electrophorus electricus, UniProt O42275). The experiment can be described thus: colorimetric AChE inhibition assay. The format is biochemical.
Chain of acetylcholinesterase (AChE) (O42275 24-633): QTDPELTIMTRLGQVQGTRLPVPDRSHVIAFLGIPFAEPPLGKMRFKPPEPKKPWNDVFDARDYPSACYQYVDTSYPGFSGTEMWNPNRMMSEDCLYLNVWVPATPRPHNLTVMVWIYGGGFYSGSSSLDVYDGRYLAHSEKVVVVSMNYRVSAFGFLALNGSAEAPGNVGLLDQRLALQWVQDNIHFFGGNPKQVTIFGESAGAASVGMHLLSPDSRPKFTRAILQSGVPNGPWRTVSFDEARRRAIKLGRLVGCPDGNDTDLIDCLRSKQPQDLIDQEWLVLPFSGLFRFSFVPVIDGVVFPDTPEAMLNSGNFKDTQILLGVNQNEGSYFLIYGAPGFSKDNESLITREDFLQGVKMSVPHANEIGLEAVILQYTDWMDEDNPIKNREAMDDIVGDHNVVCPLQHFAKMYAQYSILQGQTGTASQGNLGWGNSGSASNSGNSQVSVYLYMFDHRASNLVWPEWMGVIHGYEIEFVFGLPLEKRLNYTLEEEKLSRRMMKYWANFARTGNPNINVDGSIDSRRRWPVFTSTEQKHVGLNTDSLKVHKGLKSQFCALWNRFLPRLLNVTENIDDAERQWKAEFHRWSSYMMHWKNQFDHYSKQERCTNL

`O=C([C@@H](F)[C@H](F)CCc1ccc2c(c1)OCO2)N1CCCCC1` [compound 2, analog 2]: the pIC50 is 4.29.
